Measurements: patent US20260130933A1, “PHARMACEUTICAL COMPOSITION FOR PREVENTION OR TREATMENT OF NEPHROPATHY AND/OR DIABETES MELLITUS, COMPRISING ENAVOGLIFLOZIN” (DAEWOONG PHARMACEUTICAL CO., LTD., priority 2022, published 2026)

Assay: Example 3: phase 3 trial, enavogliflozin 0.3 mg vs dapagliflozin 10 mg once a day for 24 weeks added to metformin and gemigliptin in patients with type 2 diabetes (same endpoints, rescue drug)
Format: in vivo, human
Experimental: 1) when Metformin (≥1,000 mg/Day) was Administered at a Constant Dose for at Least 8 Weeks Prior to Pre-Visit (Pre-Screening) • Metformin (≥1,000 mg/day) and gemigliptin (50 mg/day) were co-administered during the 8-week stabilization period. […] 4) when Metformin (≥1,000 mg/Day) and Gemigliptin (50 mg/Day) were Co-Administered at Constant Doses for at Least 8 Weeks Prior to Pre-Visit (Prescreening) • Without a separate stabilization period, Pre-visit (pre-screening) was Visit 1 (screening).
Subjects who met the inclusion/exclusion criteria continued to receive metformin and gemigliptin while receiving a placebo of the clinical trial drug in a single-blind (subject-blinded) state for a 2-week run-in period.
Here, the randomized subjects were stratified according to the administration therapy (co-administration with two or less agents (one or two agents) or three or more agents) of a conventional hypoglycemic agent (before washout of another hypoglycemic agent) within 24 weeks prior to obtaining written informed consent and by an HbA1c value (<8% or ≥8%) at Visit 1 (screening) measured in the central laboratory.
The randomized subjects were administered two tablets of the clinical trial drug corresponding to each administration group once a day, and then visited the institution at weeks 6, 12, 18, and 24 during the 24-week administration period to conduct efficacy and safety assessments. In addition, during the clinical trial period, they were instructed to exercise regularly and control their diet without changing their daily life patterns.
• 1) Change in HbA1c at week 24 after administration of clinical trial drug compared to Visit 2 (randomization)
• 1) Change in HbA1c at each time point of weeks 6, 12, and 18 after administration of clinical trial drug compared to Visit 2 (randomization) • 2) Change in FPG at each time point of weeks 6, 12, 18, and 24 after administration of clinical trial drug compared to Visit 2 (randomization) • 3) Proportion of subjects achieving HbA1c<7% at each time point of weeks 6, 12, 18, and 24 after administration of clinical trial drug • 4) Proportion of subjects achieving HbA1c<6.5% at each time point of weeks 6, 12, 18, and 24 after administration of clinical trial drug • 5) Proportion of subjects achieving therapeutic response (HbA1c change (HbA1c at Visit 2—HbA1c at each evaluation time point)>0.5% or HbA1c<7% at each evaluation time point compared to Visit 2 (randomization)) at each time point of weeks 6, 12, 18, and 24 after administration of clinical trial drug • 6) Proportion of subjects achieving therapeutic response (HbA1c change (HbA1c at Visit 2—HbA1c at each evaluation time point)>0.7% or HbA1c<7% at each evaluation time point compared to Visit 2 (randomization)) at each time point of weeks 6, 12, 18, and 24 after administration of clinical trial drug • 7) Proportion of subjects achieving therapeutic response (HbA1c change (HbA1c at Visit 2—HbA1c at each evaluation time point)>1% or HbA1c<7% at each evaluation time point compared to Visit 2 (randomization)) at each time point of weeks 6, 12, 18, and 24 after administration of clinical trial drug

[1] = week 6, per-protocol set, enavogliflozin 0.3 mg, dapagliflozin 10 mg
[2] = week 12, modified per-protocol set 1, enavogliflozin 0.3 mg, dapagliflozin 10 mg
[3] = week 12, modified per-protocol set 2
[4] = week 12, modified per-protocol set 2, enavogliflozin 0.3 mg, dapagliflozin 10 mg
[5] = week 12, per-protocol set, enavogliflozin 0.3 mg, dapagliflozin 10 mg

With CCOc1ccc(Cc2cc([C@@H]3O[C@H](CO)[C@@H](O)[C@H](O)[C@H]3O)ccc2Cl)cc1 [Dapagliflozin, reference compound] the “HbA1c, Median” value [1] was 6.96%, the “Subjects achieving HbA1c target of <6.5%, (%)” value [1] was 15.57% and the “Subjects achieving HbA1c target of <7%, %” value [1] was 51.64%. The “body weight, Median” value [1] was 63.90 kg, the “Subjects achieving therapeutic glycemic response 1, %” value (week 6, per-protocol set, response 1 = HbA1c change >0.5% or HbA1c <7%, enavogliflozin 0.3 mg, dapagliflozin 10 mg) was 81.97% and the “Subjects achieving therapeutic glycemic response 2, %” value (week 6, per-protocol set, response 2 = HbA1c change >0.7% or HbA1c <7%, enavogliflozin 0.3 mg, dapagliflozin 10 mg) was 76.23%. The “Subjects achieving therapeutic glycemic response 3, %” value (week 6, per-protocol set, response 3 = HbA1c change >1% or HbA1c <7%, enavogliflozin 0.3 mg, dapagliflozin 10 mg) was 63.93%, the “FPG change from baseline, LS mean (SE)” value (week 12) was −24.42(1.50) mg/dL and the “HDL-C change from baseline, LS mean (SE)” value (week 12) was 2.84(0.60) mg/dL. The “HOMA-β change from baseline, LS mean (SE)” value (week 12) was 5.23(1.90), the “HbA1c change from baseline, LS mean (SE)” value (week 12) was −0.83(0.04) % p and the “LDL-C change from baseline, LS mean (SE)” value (week 12) was 2.71(1.75) mg/dL. For the same compound, the “UACR change from baseline, LS mean (SE)” value (week 12) was −11.76(4.47) g/kg, the “UGCR change from baseline, LS mean (SE)” value (week 12) was 44.84(2.02) mg/mg and the “adiponectin change from baseline, LS mean (SE)” value (week 12) was 0.70(0.33) μg/mL. The “body weight change from baseline, LS mean (SE)” value (week 12) was −2.71(0.19) kg, the “diastolic blood pressure change from baseline, LS mean (SE)” value (week 12) was −2.26(0.66) mmHg and the “fasting C-peptide change from baseline, LS mean (SE)” value (week 12) was −0.07(0.02) ng/ml. For the same compound, the “leptin change from baseline, LS mean (SE)” value (week 12) was −1.69(0.47) ng/ml, the “systolic blood pressure change from baseline, LS mean (SE)” value (week 12) was −5.06(0.85) mmHg and the “total cholesterol change from baseline, LS mean (SE)” value (week 12) was 5.40(1.98) mg/dL. For the same compound, the “triglyceride change from baseline, LS mean (SE)” value (week 12) was −12.02(5.12) mg/dL, the “Change from baseline in HDL-C, ANCOVA LS mean” value [2] was 2.84 mg/dL and the “Change from baseline in HDL-C, Mean” value [2] was 2.65 mg/dL. For the same compound, the “Change from baseline in HDL-C, Median” value [2] was 2.00 mg/dL, the “Change from baseline in LDL-C, ANCOVA LS mean” value [2] was 2.71 mg/dL and the “Change from baseline in LDL-C, Mean” value [2] was 2.45 mg/dL. The “Change from baseline in LDL-C, Median” value [2] was 4.00 mg/dL, the “Change from baseline in total cholesterol, ANCOVA LS mean” value [2] was 5.40 mg/dL and the “Change from baseline in total cholesterol, Mean” value [2] was 4.61 mg/dL. The “Change from baseline in total cholesterol, Median” value [2] was 6.00 mg/dL, the “Change from baseline in triglycerides, ANCOVA LS mean” value [2] was 12.02 mg/dL and the “Change from baseline in triglycerides, Mean” value [2] was -16.03 mg/dL. The “Change from baseline in triglycerides, Median” value [2] was -6.00 mg/dL, the “Fasting HDL-C, Mean” value [2] was 50.08 mg/dL and the “Fasting HDL-C, Median” value [2] was 49.00 mg/dL. The “Fasting LDL-C, Mean” value [2] was 79.86 mg/dL, the “Fasting LDL-C, Median” value [2] was 72.50 mg/dL and the “Fasting total cholesterol, Mean” value [2] was 148.41 mg/dL. For the same compound, the “Fasting triglycerides, Mean” value [2] was 116.46 mg/dL, the “Fasting triglycerides, Median” value [2] was 104.50 mg/dL and the “fasting Total cholesterol, Median” value [2] was 140.50 mg/dL. For the same compound, the “Change from baseline in diastolic blood pressure, ANCOVA LS mean” value [3] was −2.26 mmHg, the “Change from baseline in diastolic blood pressure, Mean” value [3] was −1.88 mmHg and the “Change from baseline in diastolic blood pressure, Median” value [3] was −1.00 mmHg. The “Diastolic blood pressure, Mean” value [3] was 71.99 mmHg, the “Diastolic blood pressure, Median” value [3] was 72.00 mmHg and the “Change from baseline in systolic blood pressure, ANCOVA LS mean” value [4] was −5.06 mmHg. The “Change from baseline in systolic blood pressure, Mean” value [4] was −4.43 mmHg, the “Change from baseline in systolic blood pressure, Median” value [4] was −4.00 mmHg and the “Systolic blood pressure, Mean” value [4] was 119.51 mmHg. For the same compound, the “Systolic blood pressure, Median” value [4] was 120.00 mmHg, the “Adiponectin, Mean” value (week 12, per-protocol set) was 6.97 µg/mL and the “Adiponectin, Median” value (week 12, per-protocol set) was 6.27 µg/mL. The “Change from baseline in HOMA-IR, ANCOVA LS mean” value (week 12, per-protocol set) was −1.05, the “Change from baseline in HOMA-IR, Mean” value (week 12, per-protocol set) was −1.06 and the “Change from baseline in HOMA-IR, Median” value (week 12, per-protocol set) was −0.76. For the same compound, the “Change from baseline in HOMA-β, ANCOVA LS mean” value (week 12, per-protocol set) was 5.23, the “Change from baseline in HOMA-β, Mean” value (week 12, per-protocol set) was 4.70 and the “Change from baseline in HOMA-β, Median” value (week 12, per-protocol set) was 3.50. For the same compound, the “Change from baseline in UACR, ANCOVA LS mean” value (week 12, per-protocol set) was -11.76 g/kg, the “Change from baseline in UACR, Mean” value (week 12, per-protocol set) was -7.42 g/kg and the “Change from baseline in UACR, Median” value (week 12, per-protocol set) was 0.20 g/kg. The “Change from baseline in UGCR, ANCOVA LS mean” value (week 12, per-protocol set) was 44.84 mg/mg, the “Change from baseline in UGCR, Mean” value (week 12, per-protocol set) was 43.19 mg/mg and the “Change from baseline in UGCR, Median” value (week 12, per-protocol set) was 41.69 mg/mg. For the same compound, the “Change from baseline in adiponectin, ANCOVA LS mean” value (week 12, per-protocol set) was 0.70 µg/mL, the “Change from baseline in adiponectin, Mean” value (week 12, per-protocol set) was 0.63 µg/mL and the “Change from baseline in adiponectin, Median” value (week 12, per-protocol set) was 0.43 µg/mL. The “Change from baseline in leptin, ANCOVA LS mean” value (week 12, per-protocol set) was -1.69 ng/mL, the “Change from baseline in leptin, Mean” value (week 12, per-protocol set) was -1.82 ng/mL and the “Change from baseline in leptin, Median” value (week 12, per-protocol set) was -0.96 ng/mL. The “HOMA-IR (insulin resistance), Mean” value (week 12, per-protocol set) was 1.80, the “HOMA-IR (insulin resistance), Median” value (week 12, per-protocol set) was 1.55 and the “HOMA-β (beta-cell function), Mean” value (week 12, per-protocol set) was 45.17. For the same compound, the “HOMA-β (beta-cell function), Median” value (week 12, per-protocol set) was 38.20, the “Leptin, Mean” value (week 12, per-protocol set) was 9.03 ng/mL and the “Leptin, Median” value (week 12, per-protocol set) was 7.69 ng/mL. For the same compound, the “UACR, Mean” value (week 12, per-protocol set) was 27.28 g/kg, the “UACR, Median” value (week 12, per-protocol set) was 11.80 g/kg and the “UGCR, Mean” value (week 12, per-protocol set) was 44.72 mg/mg. For the same compound, the “UGCR, Median” value (week 12, per-protocol set) was 41.80 mg/mg, the “Body weight, Mean” value [5] was 64.64 kg and the “Change from baseline in FPG, ANCOVA LS mean” value [5] was -24.42 mg/dL. For the same compound, the “Change from baseline in FPG, Mean” value [5] was -25.28 mg/dL, the “Change from baseline in FPG, Median” value [5] was -20.00 mg/dL and the “Change from baseline in HbA1c, ANCOVA LS mean” value [5] was −0.83 % p. For the same compound, the “Change from baseline in HbA1c, Mean” value [5] was −0.87 % p, the “Change from baseline in HbA1c, Median” value [5] was −0.85 % p and the “Change from baseline in body weight, ANCOVA LS mean” value [5] was -2.71 kg. The “Change from baseline in body weight, Mean” value [5] was -2.58 kg, the “Change from baseline in body weight, Median” value [5] was -2.50 kg and the “Change from baseline in fasting C-peptide, ANCOVA LS mean” value [5] was -0.07 ng/mL. The “Change from baseline in fasting C-peptide, Mean” value [5] was -0.06 ng/mL, the “Change from baseline in fasting C-peptide, Median” value [5] was -0.03 ng/mL and the “FPG, Mean” value [5] was 115.24 mg/dL. The “FPG, Median” value [5] was 112.00 mg/dL, the “Fasting C-peptide, Mean” value [5] was 0.63 ng/mL and the “Fasting C-peptide, Median” value [5] was 0.60 ng/mL. The “HbA1c, Mean” value [5] was 6.96%, the “HbA1c, Median” value [5] was 6.84% and the “Subjects achieving HbA1c target of <6.5%, (%)” value [5] was 17.07%.
